Experiment [1] addresses Tyrosine-protein kinase Fyn (Homo sapiens, UniProt P06241). The experiment is described as follows: Inhibition of Fyn A (unknown origin) at 0.5 uM preincubated for 10 mins followed by substrate addition and measured after 1 hr by ADP-Glo luminescence assay relative to control. For orientation: In ADP-Glo the light output rises with the ADP produced.
For the next experiment, the system named is MCF7. In words: cells. Conditions: Homo sapiens, MCF7, 72 h.
Experiment [2] has as its system HCT-116. The experiment is described as follows: cells. The conditions noted are these: Homo sapiens, HCT-116, 72 h.
Description: Antiproliferative activity against p53+/+ human HCT116 cells after 72 hrs by CellTiter 96 aqueous one solution assay
Experiment [3] relates to HCT-116. The experiment is described as follows: cells. Conditions: Homo sapiens, HCT-116, 72 h. The source holds these as a separate data set.
Description: Antiproliferative activity against p53-/- human HCT116 cells after 72 hrs by CellTiter 96 aqueous one solution assay
The test system of another experiment is NHDF. In words: cells. Conditions: Homo sapiens, 72 h.
The subject of the next experiment is A549. The experiment is described as follows: cells. Conditions: Homo sapiens, A549, 72 h.
The target of experiment [4] is Receptor tyrosine-protein kinase erbB-4 (Homo sapiens, UniProt Q15303). In words: Inhibition of human wild type ERBB4 (L690 to K994 residues) expressed in bacterial expression system at 5 uM relative to control.
Experiment [5] has as its target Tyrosine-protein kinase BTK (Homo sapiens, UniProt Q06187). In words: Inhibition of BTK (unknown origin) preincubated for 10 mins followed by substrate addition and measured after 1 hr by ADP-Glo luminescence assay.
The target of experiment [6] is Tyrosine-protein kinase ABL1 (Homo sapiens) (UniProt P00519). The conditions noted are these: at 0.5 µM.
Sequence of Tyrosine-protein kinase ABL1 (Homo sapiens) (P00519 whole entry): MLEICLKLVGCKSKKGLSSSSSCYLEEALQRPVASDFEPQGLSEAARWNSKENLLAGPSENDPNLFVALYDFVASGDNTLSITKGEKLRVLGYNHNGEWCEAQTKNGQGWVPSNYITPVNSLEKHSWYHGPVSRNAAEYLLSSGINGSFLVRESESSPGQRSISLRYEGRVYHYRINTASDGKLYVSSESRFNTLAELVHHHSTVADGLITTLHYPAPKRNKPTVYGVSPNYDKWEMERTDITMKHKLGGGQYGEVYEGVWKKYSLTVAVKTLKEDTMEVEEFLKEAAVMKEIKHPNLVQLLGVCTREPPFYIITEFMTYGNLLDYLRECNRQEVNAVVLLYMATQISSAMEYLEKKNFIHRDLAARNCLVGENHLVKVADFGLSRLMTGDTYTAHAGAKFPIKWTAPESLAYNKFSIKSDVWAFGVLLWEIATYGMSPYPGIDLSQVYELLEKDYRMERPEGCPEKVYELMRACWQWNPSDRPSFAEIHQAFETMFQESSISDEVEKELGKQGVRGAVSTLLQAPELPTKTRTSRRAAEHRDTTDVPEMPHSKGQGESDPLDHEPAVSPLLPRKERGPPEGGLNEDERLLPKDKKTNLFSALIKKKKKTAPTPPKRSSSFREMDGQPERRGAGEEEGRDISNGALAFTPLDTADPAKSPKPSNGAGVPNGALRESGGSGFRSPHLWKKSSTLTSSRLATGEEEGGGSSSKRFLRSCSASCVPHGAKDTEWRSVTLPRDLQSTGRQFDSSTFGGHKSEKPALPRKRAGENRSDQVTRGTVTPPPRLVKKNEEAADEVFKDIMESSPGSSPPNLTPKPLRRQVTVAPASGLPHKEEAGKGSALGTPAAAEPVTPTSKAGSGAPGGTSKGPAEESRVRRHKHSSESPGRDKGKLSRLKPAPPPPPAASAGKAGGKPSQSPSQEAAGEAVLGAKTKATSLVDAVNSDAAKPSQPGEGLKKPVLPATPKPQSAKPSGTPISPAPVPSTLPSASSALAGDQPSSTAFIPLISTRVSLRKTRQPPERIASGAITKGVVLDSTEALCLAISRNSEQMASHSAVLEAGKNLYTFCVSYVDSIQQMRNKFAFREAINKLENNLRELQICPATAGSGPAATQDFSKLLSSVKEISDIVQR
Description: Inhibition of ABL1 (unknown origin) at 0.5 uM preincubated for 10 mins followed by substrate addition and measured after 1 hr by ADP-Glo luminescence assay relative to control

Sequence of Tyrosine-protein kinase Fyn (P06241 2-537 limits assumed): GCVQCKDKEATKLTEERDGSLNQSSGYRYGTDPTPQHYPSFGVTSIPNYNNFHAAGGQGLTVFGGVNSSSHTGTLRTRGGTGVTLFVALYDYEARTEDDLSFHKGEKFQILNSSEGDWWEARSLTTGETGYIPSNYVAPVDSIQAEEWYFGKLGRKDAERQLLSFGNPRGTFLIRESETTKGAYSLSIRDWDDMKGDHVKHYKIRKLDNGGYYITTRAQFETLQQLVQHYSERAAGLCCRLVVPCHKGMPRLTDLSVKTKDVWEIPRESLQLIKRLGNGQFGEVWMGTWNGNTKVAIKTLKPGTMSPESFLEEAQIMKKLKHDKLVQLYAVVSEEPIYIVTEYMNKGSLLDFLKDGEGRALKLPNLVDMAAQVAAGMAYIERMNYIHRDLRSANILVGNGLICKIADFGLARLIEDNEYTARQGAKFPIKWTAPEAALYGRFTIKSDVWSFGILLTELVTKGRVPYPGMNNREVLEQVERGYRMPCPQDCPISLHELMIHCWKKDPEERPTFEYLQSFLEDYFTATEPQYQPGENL
Sequence of Tyrosine-protein kinase BTK (Q06187 whole entry): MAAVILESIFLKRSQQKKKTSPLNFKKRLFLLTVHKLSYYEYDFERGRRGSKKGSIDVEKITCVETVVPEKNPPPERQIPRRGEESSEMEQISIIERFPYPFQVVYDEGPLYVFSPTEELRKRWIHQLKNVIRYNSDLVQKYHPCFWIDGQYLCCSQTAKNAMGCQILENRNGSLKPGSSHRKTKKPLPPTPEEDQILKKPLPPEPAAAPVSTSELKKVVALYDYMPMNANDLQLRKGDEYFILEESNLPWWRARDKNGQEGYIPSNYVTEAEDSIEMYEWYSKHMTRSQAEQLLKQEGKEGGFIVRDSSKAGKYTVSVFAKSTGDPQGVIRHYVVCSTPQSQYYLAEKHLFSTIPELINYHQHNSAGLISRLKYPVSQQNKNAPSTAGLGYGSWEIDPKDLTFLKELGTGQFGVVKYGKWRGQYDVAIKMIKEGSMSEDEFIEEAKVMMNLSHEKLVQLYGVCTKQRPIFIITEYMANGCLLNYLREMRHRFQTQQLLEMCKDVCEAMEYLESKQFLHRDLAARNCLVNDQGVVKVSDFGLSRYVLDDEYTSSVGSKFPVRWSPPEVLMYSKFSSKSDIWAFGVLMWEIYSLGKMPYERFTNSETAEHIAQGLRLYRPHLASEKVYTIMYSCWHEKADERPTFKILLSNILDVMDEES
Sequence of Receptor tyrosine-protein kinase erbB-4 (Q15303 whole entry, the tested form may be a part): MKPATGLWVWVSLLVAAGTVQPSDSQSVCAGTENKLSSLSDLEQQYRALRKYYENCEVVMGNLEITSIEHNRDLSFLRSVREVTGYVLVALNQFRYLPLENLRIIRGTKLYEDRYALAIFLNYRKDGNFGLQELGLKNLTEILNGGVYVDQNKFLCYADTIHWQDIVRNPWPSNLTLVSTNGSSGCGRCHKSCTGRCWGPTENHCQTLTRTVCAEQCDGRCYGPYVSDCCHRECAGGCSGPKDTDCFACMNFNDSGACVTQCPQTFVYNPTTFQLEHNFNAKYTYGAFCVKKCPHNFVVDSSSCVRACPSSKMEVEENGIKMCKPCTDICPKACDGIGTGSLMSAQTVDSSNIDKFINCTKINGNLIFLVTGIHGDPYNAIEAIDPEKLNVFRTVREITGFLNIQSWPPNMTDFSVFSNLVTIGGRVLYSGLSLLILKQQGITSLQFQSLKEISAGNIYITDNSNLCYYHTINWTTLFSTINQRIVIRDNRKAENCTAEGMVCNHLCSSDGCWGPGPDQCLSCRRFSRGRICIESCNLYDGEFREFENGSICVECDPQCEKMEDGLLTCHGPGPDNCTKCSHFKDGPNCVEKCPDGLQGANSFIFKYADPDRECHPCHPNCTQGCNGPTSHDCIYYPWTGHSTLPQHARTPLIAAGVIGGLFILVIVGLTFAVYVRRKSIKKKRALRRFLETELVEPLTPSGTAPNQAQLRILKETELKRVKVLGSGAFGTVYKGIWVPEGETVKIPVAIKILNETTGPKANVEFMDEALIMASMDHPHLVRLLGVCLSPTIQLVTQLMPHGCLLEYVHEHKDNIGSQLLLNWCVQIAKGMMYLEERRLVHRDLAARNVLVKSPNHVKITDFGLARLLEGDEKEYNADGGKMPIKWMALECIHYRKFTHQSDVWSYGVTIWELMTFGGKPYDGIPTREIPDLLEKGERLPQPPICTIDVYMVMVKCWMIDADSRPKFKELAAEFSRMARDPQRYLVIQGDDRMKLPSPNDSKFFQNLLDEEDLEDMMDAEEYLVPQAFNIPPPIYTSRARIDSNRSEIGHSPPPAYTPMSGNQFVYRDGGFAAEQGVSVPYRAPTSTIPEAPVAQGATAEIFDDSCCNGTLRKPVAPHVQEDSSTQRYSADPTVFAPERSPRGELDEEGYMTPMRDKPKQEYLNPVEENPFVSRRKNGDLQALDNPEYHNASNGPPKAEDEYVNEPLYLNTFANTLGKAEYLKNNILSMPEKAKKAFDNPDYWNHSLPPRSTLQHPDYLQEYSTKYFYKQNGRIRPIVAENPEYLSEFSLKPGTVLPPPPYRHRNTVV
Description for A549: Antiproliferative activity against human A549 cells after 72 hrs by CellTiter 96 aqueous one solution assay
Description for MCF7: Antiproliferative activity against human MCF7 cells after 72 hrs by CellTiter 96 aqueous one solution assay
Description for NHDF: Antiproliferative activity against human NHDF cells after 72 hrs by CellTiter 96 aqueous one solution assay

For the compound `CC(=O)Oc1ccc(/C=C/c2nc3ccccc3c(=O)[nH]2)c(OC(C)=O)c1`, the inhibition (in general, the percentage by which the read-out fell short of the control) in experiment [1] worked out at 19%. Besides, the IC50 – broadly, the midpoint of a concentration-inhibition curve – was more than 25 µM with MCF7; more than 25 µM in the experiment with HCT-116 [2]; 23 µM in the experiment on HCT-116 [3]; more than 25 µM in the experiment on NHDF; more than 25 µM in the experiment on A549.
In [4], `CCN(CC)CCCNc1nc(/C=C/c2ccc(OC)cc2)nc2ccc(Br)cc12` displayed an inhibition of 0%.
Regarding `O=c1[nH]c(/C=C/c2cccc3c2OCO3)nc2ccccc12`, in [1], the inhibition came out at 40%. The IC50 in the experiment on HCT-116 [2] and in the experiment on HCT-116 [3] was more than 25 µM in each case.
In turn, `COc1ccc(/C=C/c2nc(NCCCN(C)C)c3ccccc3n2)cc1` had an inhibition in [1] of 31%. Also, the IC50 in the experiment on MCF7 is 27 µM; in the experiment with A549 it was more than 25 µM.
In experiment [1], `CCOc1ccc(/C=C/c2nc3ccccc3c(=O)[nH]2)cc1` came in with an inhibition of 0%. The IC50 in the experiment on HCT-116 [2] and in the experiment with HCT-116 [3] was more than 25 µM throughout.
As for `Cc1ccc(NC(=O)c2ccc(CN3CCN(C)CC3)cc2)cc1Nc1nccc(-c2cccnc2)n1` [IMATINIB], in experiment [1], the inhibition came to 0%. In addition, the IC50 in the experiment with MCF7, with NHDF and with A549 was more than 25 µM each time.
Turning to `Oc1ccc(Nc2nc(/C=C/c3cccc(Cl)c3)nc3ccccc23)cc1`, the inhibition in experiment [1] was 0%. Moreover, the IC50 in the experiment on MCF7 worked out at 9.19 µM; with HCT-116 [2], 21.9 µM; with HCT-116 [3] it was 22.7 µM; in the experiment with NHDF, 14.2 µM; in the experiment with A549, 14.8 µM.
Consider `COc1ccc(/C=C/c2nc3ccccc3c(=O)[nH]2)cc1`, for which the inhibition in experiment [1] was 2%. Moreover, the concentration for half-maximal inhibition (IC50) with MCF7, in the experiment with HCT-116 [2], with HCT-116 [3] and in the experiment with A549 was more than 25 µM each time.
As for `O=c1[nH]c(/C=C/c2c(Br)ccc3c2OCO3)nc2ccccc12`, the inhibition in experiment [1] came out at 61%. Besides, the half-maximal inhibitory concentration (IC50) in the experiment with MCF7 is 12.8 µM; with HCT-116 [2], more than 25 µM; in the experiment with HCT-116 [3], more than 25 µM; with NHDF it was 14.8 µM; in the experiment on A549, 13.8 µM.
Compound `Cc1nc(Nc2ncc(C(=O)Nc3c(C)cccc3Cl)s2)cc(N2CCN(CCO)CC2)n1` [DASATINIB] returned an inhibition in experiment [1] of 92%. For the same compound, the IC50 with MCF7 worked out at 1.11 µM; in the experiment with HCT-116 [2] it was 3.58 µM; in the experiment with NHDF it was 0.71 µM; with A549 it was 23.7 µM.
In turn, `O=c1[nH]c(/C=C/c2ccc3c(c2)OCO3)nc2ccccc12` returned an inhibition in experiment [1] of 4%. Besides, the half-inhibitory concentration (IC50) in the experiment with HCT-116 [2] and with HCT-116 [3] was more than 25 µM each time.
In the case of `Oc1cccc(Nc2nc(/C=C/c3cccc(Cl)c3)nc3ccccc23)c1`, the inhibition in experiment [1] was 0%. Further, the IC50 in the experiment on HCT-116 [2] and in the experiment on HCT-116 [3] was more than 25 µM throughout.
As for `CC(=O)Oc1ccccc1/C=C/c1nc2ccccc2c(=O)[nH]1`, the inhibition in experiment [1] worked out at 0%. The IC50 in the experiment with MCF7 was more than 25 µM; with HCT-116 [2], more than 25 µM; in the experiment with HCT-116 [3] it was 17.2 µM; in the experiment on NHDF, more than 25 µM; in the experiment on A549, more than 25 µM.
The compound `CNC(=O)c1ccccc1Sc1ccc2c(/C=C/c3ccccn3)n[nH]c2c1` gave an inhibition in experiment [1] of 44%.
Consider `CCOc1ccccc1/C=C/c1nc2ccccc2c(=O)[nH]1`, for which, in experiment [1], the inhibition was found to be 0%. Moreover, the concentration for half-maximal inhibition (IC50) is 6.26 µM in the experiment on MCF7; 23.3 µM in the experiment with HCT-116 [2]; 6.43 µM in the experiment with HCT-116 [3]; more than 25 µM with NHDF; 21.8 µM with A549.
On to `COc1ccccc1/C=C/c1nc2ccccc2c(=O)[nH]1`, for which the IC50 in experiment [5] was 0.456 µM; with MCF7, 4.45 µM; in the experiment on HCT-116 [2], 2.47 µM; with HCT-116 [3], 1.46 µM; in the experiment with NHDF, more than 25 µM; in the experiment with A549, more than 25 µM. For the same compound, the inhibition in [1] was 0%.
For `O=c1[nH]c(/C=C/c2cc3c(cc2Br)OCO3)nc2ccccc12`, the inhibition in [1] was 0%. Moreover, the IC50 in the experiment on MCF7, in the experiment on HCT-116 [2], with HCT-116 [3] and in the experiment on A549 was more than 25 µM in each case.
In the case of `COc1ccc(/C=C/c2nc(Nc3cccc(O)c3)c3ccccc3n2)cc1`, in experiment [1], the inhibition was found to be 0%. Also, the IC50 with MCF7 was 14.7 µM; in the experiment on HCT-116 [2], 22.9 µM; in the experiment with HCT-116 [3], 22.9 µM; with NHDF it was more than 25 µM; with A549, 20.8 µM.
On to `COc1ccc(Cl)c(Nc2ncnc3cc(OCC4CCN(C)CC4)c(OC)cc23)c1` [AZM-475271], for which the inhibition is 76% in experiment [1] and 8% in experiment [6]. The IC50 in the experiment with MCF7, in the experiment on HCT-116 [2], with HCT-116 [3], with NHDF and with A549 was more than 25 µM throughout.
`CC(=O)Oc1ccccc1/C=C/c1nc(Nc2ccccc2I)c2ccccc2n1` gave an inhibition in [1] of 24%. Further, the half-maximal inhibitory concentration (IC50) with MCF7 was 15.6 µM; in the experiment on HCT-116 [2] it was more than 25 µM; in the experiment with HCT-116 [3], more than 25 µM; in the experiment with NHDF, 23.2 µM; with A549 it was 16.4 µM.
In the case of `O=c1[nH]c(/C=C/c2cccc([N+](=O)[O-])c2)nc2ccccc12`, in [1], the inhibition is 0%. In addition, the concentration for half-maximal inhibition (IC50) in the experiment with HCT-116 [2] and in the experiment on HCT-116 [3] was more than 25 µM each time.
`COc1ccccc1/C=C/c1nc(Nc2ccccc2Cl)c2ccccc2n1` displayed an inhibition in experiment [1] of 0%. Further, the IC50 in the experiment with MCF7 is 18.9 µM; with HCT-116 [2], more than 25 µM; in the experiment with HCT-116 [3] it was 16.1 µM; in the experiment on NHDF, more than 25 µM; in the experiment with A549, more than 25 µM.
`COc1ccccc1/C=C/c1nc(Nc2ccc(O)cc2)c2ccccc2n1` gave an inhibition in [1] of 0%. Moreover, the half-inhibitory concentration (IC50) in the experiment with MCF7 was 8.29 µM; in the experiment on HCT-116 [2], more than 25 µM; in the experiment on HCT-116 [3], 17.9 µM; in the experiment on NHDF, 13.8 µM; in the experiment on A549 it was 13 µM.
`COc1ccc(OC)c(Nc2nc(/C=C/c3ccccc3OC(C)=O)nc3ccccc23)c1` came in with an inhibition in experiment [1] of 63%. Besides, the concentration for half-maximal inhibition (IC50) is 7.84 µM in the experiment on MCF7; more than 25 µM with HCT-116 [2]; more than 25 µM with HCT-116 [3]; more than 25 µM with NHDF; more than 25 µM in the experiment on A549.
`O=c1[nH]c(/C=C/c2ccc([N+](=O)[O-])cc2)nc2ccccc12`: in [1], the inhibition was 29%. The IC50 with HCT-116 [2] and in the experiment on HCT-116 [3] was more than 25 µM each time.
In [1], `CCCCOc1ccc(/C=C/c2nc3ccccc3c(=O)[nH]2)cc1` came in with an inhibition of 0%. Besides, the 50% inhibitory concentration (IC50) in the experiment on MCF7, in the experiment on HCT-116 [2], in the experiment on HCT-116 [3] and in the experiment on A549 was more than 25 µM throughout.
With `Oc1cccc(Nc2nc(/C=C/c3cc4c(cc3Br)OCO4)nc3ccccc23)c1`, the half-inhibitory concentration (IC50) in experiment [5] is 0.287 µM; in the experiment with MCF7, 4.38 µM; with HCT-116 [2], 4.38 µM; in the experiment on HCT-116 [3], 5.03 µM; with NHDF, 4.59 µM; in the experiment on A549 it was 7.41 µM. In experiment [1], this compound gave an inhibition of 0%.
For `O=[N+]([O-])c1cccc(/C=C/c2nc(Nc3cccc(O)c3)c3ccccc3n2)c1`, the IC50 in experiment [5] turned out to be 0.88 µM; in the experiment on MCF7, 10.1 µM; with HCT-116 [2] it was 10.9 µM; in the experiment with HCT-116 [3] it was 10.8 µM; with NHDF it was 11.2 µM; with A549 it was 15.4 µM. Further, the inhibition in experiment [1] was 0%.
The compound `COc1ccccc1/C=C/c1nc(NCc2ccc3c(c2)OCO3)c2ccccc2n1` came in with an inhibition in [1] of 1%. Further, the IC50 with MCF7 was 10.8 µM; with HCT-116 [2], 10.8 µM; in the experiment with HCT-116 [3], 13.3 µM; in the experiment with NHDF, 14.4 µM; with A549 it was 11.6 µM.
The compound `CC(=O)Oc1cccc(/C=C/c2nc3ccccc3c(=O)[nH]2)c1` gave an inhibition in experiment [1] of 0%. Also, the half-maximal inhibitory concentration (IC50) was 6.37 µM with MCF7; 15.3 µM in the experiment on HCT-116 [2]; 9.29 µM in the experiment on HCT-116 [3]; more than 25 µM with NHDF; more than 25 µM in the experiment with A549.
Consider `COc1ccccc1/C=C/c1nc(Nc2cccc(O)c2)c2ccccc2n1`, for which the inhibition in experiment [1] came to 0%. In addition, the half-maximal inhibitory concentration (IC50) with MCF7 came to 11.2 µM; in the experiment with HCT-116 [2] it was 21.7 µM; with HCT-116 [3], 16.4 µM; in the experiment on NHDF it was 17.5 µM; in the experiment on A549, 16.6 µM.
`COc1cccc(/C=C/c2nc3ccccc3c(=O)[nH]2)c1`: in [1], the inhibition amounted to 0%. Moreover, the IC50 in the experiment with HCT-116 [2] and with HCT-116 [3] was more than 25 µM in each case.

These data come from ChEMBL document CHEMBL4411283, “The p53 stabilizing agent CP-31398 and multi-kinase inhibitors. Designing, synthesizing and screening of styrylquinazoline series” (Eur J Med Chem, 2019).
